According to patent US12655116B2, “Substituted isophthalic acid diamides” (Bayer Aktiengesellschaft, priority 2020, dated 2026):

Columns and labels:
ABUTH [1] = test: Pre-emergence herbicidal action against ABUTH; format: in vivo, Abutilon theophrasti; details: Abutilon theophrasti, 504 h
Procedure, shortened: (§1)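 Sandy loam pots, seeds covered with soil, then surface-treated with WP or EC formulations at 600–800 l/ha water plus 0.2% wetting agent. Greenhouse, 3 weeks. Percent damage vs untreated controls.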

ALOMY [2] = test: Pre-emergence herbicidal action against ALOMY; format: in vivo, Alopecurus myosuroides; details: Alopecurus myosuroides, 504 h, pre-emergence
Procedure, shortened: as §1

AMARE [3] = test: Pre-emergence herbicidal action against AMARE; format: in vivo, Amaranthus retroflexus; details: Amaranthus retroflexus, 504 h, 100% = plants have died, 0% = like control plants
Procedure, shortened: as §1

AVEFA = test: Pre-emergence herbicidal action against AVEFA; format: in vivo, Avena fatua; details: Avena fatua, 504 h, pre-emergence
Procedure, shortened: as §1

ECHCG [4] = test: Pre-emergence herbicidal action against ECHCG; format: in vivo, Echinochloa crus-galli; details: Echinochloa crus-galli, 504 h
Procedure, shortened: as §1

HORMU [5] = test: Pre-emergence herbicidal action against HORMU; format: in vivo, Hordeum murinum; details: Hordeum murinum, 504 h, pre-emergence
Procedure, shortened: as §1

LOLRI [6] = test: Pre-emergence herbicidal action against LOLRI; format: in vivo, Lolium rigidum; details: Lolium rigidum, 504 h
Procedure, shortened: as §1

POLCO [7] = test: Pre-emergence herbicidal action against POLCO; format: in vivo, Polygonum convolvulus; details: Fallopia convolvulus, 504 h
Procedure, shortened: as §1

SETVI [8] = test: Pre-emergence herbicidal action against SETVI; format: in vivo, Setaria viridis; details: Setaria viridis, 504 h
Procedure, shortened: as §1

STEME = test: Pre-emergence herbicidal action against STEME; format: in vivo, Stellaria media; details: Stellaria media, 504 h
Procedure, shortened: as §1

VERPE [9] = test: Pre-emergence herbicidal action against VERPE; format: in vivo, Veronica persica; details: Veronica persica, 504 h
Procedure, shortened: as §1

VIOTR [10] = test: Pre-emergence herbicidal action against VIOTR; format: in vivo, Viola tricolor; details: Viola tricolor, 504 h
Procedure, shortened: as §1

ABUTH [11] = test: Post-emergence herbicidal action against ABUTH; format: in vivo, Abutilon theophrasti; details: Abutilon theophrasti, 504 h, visual assessment about 3 weeks after treatment vs untreated controls
Procedure, shortened: (§2)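 Visual % rating (0% = as untreated, 100% = dead) ~3 wk after spraying one-leaf-stage plants grown in sandy loam; WP/EC in water at 600–800 l/ha, 0.2% wetting agent.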

ALOMY [12] = test: Post-emergence herbicidal action against ALOMY; format: in vivo, Alopecurus myosuroides; details: Alopecurus myosuroides, 504 h, visual assessment about 3 weeks after treatment vs untreated controls
Procedure, shortened: as §2

AMARE [13] = test: Post-emergence herbicidal action against AMARE; format: in vivo, Amaranthus retroflexus; details: Amaranthus retroflexus, 504 h, visual assessment about 3 weeks after treatment, 100% = plants have died, 0% = like control plants
Procedure, shortened: as §2

ECHCG [14] = test: Post-emergence herbicidal action against ECHCG; format: in vivo, Echinochloa crus-galli; details: Echinochloa crus-galli, 504 h
Procedure, shortened: as §2

HORMU [15] = test: Post-emergence herbicidal action against HORMU; format: in vivo, Hordeum murinum; details: Hordeum murinum, 504 h
Procedure, shortened: as §2

LOLRI [16] = test: Post-emergence herbicidal action against LOLRI; format: in vivo, Lolium rigidum; details: Lolium rigidum, 504 h
Procedure, shortened: as §2

POLCO [17] = test: Post-emergence herbicidal action against POLCO; format: in vivo, Polygonum convolvulus; details: Fallopia convolvulus, 504 h, dosage 80 g/ha
Procedure, shortened: as §2

SETVI [18] = test: Post-emergence herbicidal action against SETVI; format: in vivo, Setaria viridis; details: Setaria viridis, 504 h
Procedure, shortened: as §2

VERPE [19] = test: Post-emergence herbicidal action against VERPE; format: in vivo, Veronica persica; details: Veronica persica, 504 h
Procedure, shortened: as §2

VIOTR [20] = test: Post-emergence herbicidal action against VIOTR; format: in vivo, Viola tricolor; details: Viola tricolor, 504 h
Procedure, shortened: as §2

[21] = 80 g/ha, scored visually after 3 weeks vs untreated controls (100% = plants have died, 0% = like control plants)
[22] = 20 g/ha, scored visually after 3 weeks, 100% = plants have died, 0% = like control plants
[23] = 320 g/ha, scored visually after 3 weeks, 100% = plants have died, 0% = like control plants

CNC(=O)c1c(C(F)(F)F)ccc(C(=O)Nc2nnnn2C)c1Cl [Example 1-129]
pest or weed control at 80 g/ha (ABUTH [1]; [21]): 100%
pest or weed control at 320 g/ha (ABUTH [1]; Dosage: 320 g/ha, scored visually after 3 weeks, 100% = plants have died, 0% = like control plants): 100%
pest or weed control at 20 g/ha (ABUTH [1]; dosage 20 g/ha, scored visually after 3 weeks vs untreated controls, 100% = plants have died, 0% = like control plants, read-out: Pre-emergence action against ABUTH (herbicidal activity in percent)): 100%
pest or weed control at 80 g/ha (ALOMY [2]; [21]): 100%
pest or weed control at 20 g/ha (ALOMY [2]; [22]): 90%
pest or weed control at 320 g/ha (ALOMY [2]; [23]): 100%
pest or weed control at 20 g/ha (AMARE [3]; 20 g/ha, scored visually after 3 weeks vs untreated controls): 100%
pest or weed control at 80 g/ha (AMARE [3]; 80 g/ha, scored visually after 3 weeks vs untreated controls): 100%
pest or weed control at 320 g/ha (AMARE [3]; 320 g/ha, scored visually after 3 weeks): 100%
pest or weed control at 80 g/ha (AVEFA; 80 g/ha): 100%
pest or weed control at 20 g/ha (AVEFA; [22]): 100%
pest or weed control at 320 g/ha (AVEFA; [23]): 100%
pest or weed control at 20 g/ha (ECHCG [4]; 20 g/ha): 80%
pest or weed control at 80 g/ha (ECHCG [4]; 80 g/ha): 100%
pest or weed control at 320 g/ha (ECHCG [4]; 320 g/ha): 100%
pest or weed control at 80 g/ha (HORMU [5]; 80 g/ha): 90%
pest or weed control at 320 g/ha (HORMU [5]; 320 g/ha): 100%
pest or weed control at 80 g/ha (LOLRI [6]; 80 g/ha): 90%
pest or weed control at 320 g/ha (LOLRI [6]; 320 g/ha): 100%
pest or weed control at 80 g/ha (POLCO [7]; dosage 80 g/ha): 100%
pest or weed control at 320 g/ha (POLCO [7]; dosage 320 g/ha): 100%
pest or weed control at 80 g/ha (SETVI [8]; dosage 80 g/ha): 100%
pest or weed control at 320 g/ha (SETVI [8]; dosage 320 g/ha): 100%
pest or weed control at 20 g/ha (STEME; dosage 20 g/ha): 100%
pest or weed control at 80 g/ha (STEME; dosage 80 g/ha): 100%
pest or weed control at 320 g/ha (STEME; dosage 320 g/ha): 100%
pest or weed control at 80 g/ha (VERPE [9]; dosage 80 g/ha): 100%
pest or weed control at 320 g/ha (VERPE [9]; dosage 320 g/ha): 100%
pest or weed control at 20 g/ha (VIOTR [10]; dosage 20 g/ha): 100%
pest or weed control at 80 g/ha (VIOTR [10]; dosage 80 g/ha): 100%
pest or weed control at 320 g/ha (VIOTR [10]; dosage 320 g/ha): 100%
pest or weed control at 5 g/ha (ABUTH [11]; dosage 5 g/ha): 100%
pest or weed control at 20 g/ha (ABUTH [11]; dosage 20 g/ha): 100%
pest or weed control at 80 g/ha (ABUTH [11]; dosage 80 g/ha): 100%
pest or weed control at 5 g/ha (ALOMY [12]; dosage 5 g/ha): 90%
pest or weed control at 20 g/ha (ALOMY [12]; dosage 20 g/ha): 100%
pest or weed control at 80 g/ha (ALOMY [12]; dosage 80 g/ha): 100%
pest or weed control at 20 g/ha (AMARE [13]; 20 g/ha): 100%
pest or weed control at 80 g/ha (AMARE [13]; 80 g/ha): 100%
pest or weed control at 5 g/ha (ECHCG [14]; dosage 5 g/ha): 100%
pest or weed control at 20 g/ha (ECHCG [14]; dosage 20 g/ha): 100%
pest or weed control at 80 g/ha (ECHCG [14]; dosage 80 g/ha): 100%
pest or weed control at 5 g/ha (HORMU [15]; dosage 5 g/ha): 90%
pest or weed control at 20 g/ha (HORMU [15]; dosage 20 g/ha): 100%
pest or weed control at 80 g/ha (HORMU [15]; dosage 80 g/ha): 100%
pest or weed control at 5 g/ha (LOLRI [16]; dosage 5 g/ha): 80%
pest or weed control at 20 g/ha (LOLRI [16]; dosage 20 g/ha): 100%
pest or weed control at 80 g/ha (LOLRI [16]; dosage 80 g/ha): 100%
pest or weed control at 80 g/ha (POLCO [17]): 100%
pest or weed control at 5 g/ha (SETVI [18]; dosage 5 g/ha): 100%
pest or weed control at 20 g/ha (SETVI [18]; dosage 20 g/ha): 100%
pest or weed control at 80 g/ha (SETVI [18]; dosage 80 g/ha): 100%
pest or weed control at 5 g/ha (VERPE [19]; 5 g/ha): 80%
pest or weed control at 20 g/ha (VERPE [19]; 20 g/ha): 80%
pest or weed control at 80 g/ha (VERPE [19]; 80 g/ha): 100%
pest or weed control at 5 g/ha (VIOTR [20]; 5 g/ha): 80%
pest or weed control at 20 g/ha (VIOTR [20]; 20 g/ha): 100%
pest or weed control at 80 g/ha (VIOTR [20]; 80 g/ha): 100%
